Assay results taken from patent publication US5185320A, “O^56 -alkyl derivatives of aglycone and pseudo aglycones of teicoplanin” (Gruppo Lepetit S.p.A., priority 1989, dated 1993).

Experiments:
Type in all cases: cell-based
Conditions in all cases: inoculum about 10^4 CFU/ml, 18-24 h at 37° C.
Staph. aureus Tour L 165 = test: MIC, standard dilution test, Staph. aureus Tour L 165
Experimental: (§1) ISOSENSITEST broth (Oxoid) and TOLLD-HEWITT broth (Difco) are used for growing staphylococci and streptococci, respectively. Broth cultures are diluted so that the final inoculum is about 10^4 colony forming units/ml (CFU/ml).

[1] = tested on: Strep. faecalis ATCC 7080; test: MIC, standard dilution test, Strep. faecalis ATCC 7080
Experimental: as §1

[2] = tested on: Staph. epidermidis ATCC 12228; test: MIC, standard dilution test, Staph. epidermidis ATCC 12228
Experimental: as §1

[3] = tested on: Proteus vulgaris ATCC 881; test: MIC, standard dilution test, Proteus vulgaris ATCC 881
Experimental: as §1

[4] = tested on: Haemophilus influenzae ATCC 19418; test: MIC, standard dilution test, Haemophilus influenzae ATCC 19418
Experimental: as §1

Strep. mitis L 796 = test: MIC, standard dilution test, Strep. mitis L 796
Experimental: as §1

[5] = tested on: Staph. haemolyticus L 602; test: MIC, standard dilution test, Staph. haemolyticus L 602
Experimental: as §1

[6] = tested on: Neisseria gonorrhoeae ISM68/126; test: MIC, standard dilution test, Neisseria gonorrhoeae ISM68/126
Experimental: as §1

[7] = tested on: Escherichia coli SKF 12140; test: MIC, standard dilution test, Escherichia coli SKF 12140
Experimental: as §1

[8] = tested on: Pseudomonas aeruginosa ATCC 10145; test: MIC, standard dilution test, Pseudomonas aeruginosa ATCC 10145
Experimental: as §1

Strep. pneumoniae UC41 = test: MIC, standard dilution test, Strep. pneumoniae UC41
Experimental: as §1

Strep. pyogenes C 203 = test: MIC, standard dilution test, Strep. pyogenes C 203
Experimental: as §1

| Molecule | Minimal inhibitory concentration (MIC) (Staph. aureus Tour L 165) | Minimal inhibitory concentration (MIC) [1] | Minimal inhibitory concentration (MIC) [2] | Minimal inhibitory concentration (MIC) [3] | Minimal inhibitory concentration (MIC) [4] | Minimal inhibitory concentration (MIC) (Strep. mitis L 796) | Minimal inhibitory concentration (MIC) [5] | Minimal inhibitory concentration (MIC) [6] | Minimal inhibitory concentration (MIC) [7] | Minimal inhibitory concentration (MIC) [8] | Minimal inhibitory concentration (MIC) (Strep. pneumoniae UC41) | Minimal inhibitory concentration (MIC) (Strep. pyogenes C 203) |
| --- | --- | --- | --- | --- | --- | --- | --- | --- | --- | --- | --- | --- |
| NC1C(=O)NC2Cc3ccc(c(Cl)c3)Oc3cc4cc(c3OC3CCOC3=O)Oc3ccc(cc3Cl)C(O)C3NC(=O)C(NC(=O)C4NC(=O)C(NC2=O)c2cc(O)cc(c2)Oc2cc1ccc2O)c1ccc(O)c(c1)-c1c(O)cc(O)cc1C(C(=O)OC1CCOC1=O)NC3=O (stereo not drawn) [Compound 23, O^56-(tetrahydro-2-oxo-3-furanyl)deglucoteicoplanin (tetrahydro-2-oxo-3-furanyl) ester] | 0.5 | 1 | 0.25 | > 128 | > 128 | 2 | 8 | > 128 | > 128 | > 128 | 0.5 | 2 |
| NCCNC(=O)C(CCO)OC(=O)C1NC(=O)C2NC(=O)C(NC(=O)C3NC(=O)C4NC(=O)C(Cc5ccc(c(Cl)c5)Oc5cc3cc(c5OC(CCO)C(=O)NCCN)Oc3ccc(cc3Cl)C2O)NC(=O)C(N)c2ccc(O)c(c2)Oc2cc(O)cc4c2)c2ccc(O)c(c2)-c2c(O)cc(O)cc21 (stereo not drawn) [Compound 24] | 0.25 | 0.5 | 0.125 | 128 | > 128 | 0.125 | 0.25 | 128 | 32 | > 128 | 0.25 | 0.125 |
| O-(2-(3-(4-(3-amino-propyl)amino)butyl)amino)propyl)amino)-1-hydroxy-2-oxoethyl)teicoplanin aglycone 1-(3-(4-(3-aminopropyl) amino)butyl)amino)propyl)amino)carbonyl)-3-hydroxy-propyl ester [Compound 25] | 0.25 | 1 | 0.125 | 64 | > 128 | 0.125 | 0.25 | > 128 | 32 | > 128 | 0.125 | 0.125 |
| O^56 -(2-bromoethyl)deglucoteicoplanin phenylmethyl ester [Compound 19] | 1 | 4 | 0.5 | > 128 | > 128 | 0.25 | 4 | > 128 | > 128 | > 128 | 0.5 | 0.25 |
